Here are results for four compounds from US20260284082A1, “TARGETING THE PANX1-P2Y2R-TRPV4 PATHWAY TO TREAT LUNG ISCHEMIA-REPERFUSION INJURY” (UNIVERSITY OF VIRGINIA PATENT FOUNDATION, priority 2023, published 2026).

One data set concerns TRPV4 channels. The settings on record: CPA 20 μM as used; cited from earlier work.
The test system of data set [1] is eATP efflux through Panx1 channels. Put plainly: Luciferase assay for eATP release from small PAs. Type of data set: cell-based, mouse. The settings on record: GSK101 10 nM. The protocol:
Luciferase assay for total ATP release: Small Pas were cut open and pinned down en face on a Sylgard block. Pas were then placed in black, opaque 96-well plates and incubated in HEPES-PSS for 10 minutes at 37° C., followed by incubation with the ectonucleotidase inhibitor ARL 67156 (300 μmol/L; Tocris Bioscience, Minneapolis, MN) for 30 minutes at 37° C. A 50-μL aliquot of each sample was transferred to another black, opaque 96-well plate, and ATP was measured using an ATP Bioluminescence HSII kit (Roche Applied Science, Penzberg, Germany).^5 Briefly, 50 μL of the luciferase reagent, luciferin, provided in the assay kit (Roche Applied Science), was added to each well and. following a 5-second orbital mix, luminescence was recorded using a luminometer (FluoStar Omega). ATP concentrations were calculated by reference to an ATP standard curve.

For data set [2] the following is noted: human, in vivo; cited from earlier work.
Data set [3] concerns pulmonary endothelium of small PAs. Put plainly: Baseline endothelial Ca2+ signaling in en face small PAs after lung IR (Fluo-4 confocal imaging). As to conditions: apyrase 10 U/mL; small PAs after lung IR. The data set is classed as cell-based, mice. The protocol: (§1) Murine lung IR model: A well-established left lung IRI model involving temporary in vivo ligation of the left hilum (pulmonary artery, vein, and airway) was used.^6 Briefly, mice were anesthetized with inhaled isoflurane, intubated, ventilated with room air at 150 strokes/min with a tidal volume of […] (Harvard Apparatus Co, South Natick, MA), and heparinized (20 U/kg: Hospira Inc, Lake Forest, IL). An anterolateral thoracotomy was performed through the fourth intercostal space to expose the left hilum. A 6-0 Prolene suture (Ethicon. Somerville, NJ) was passed around the left hilum, and the suture ends were passed through a 5-mm length of polyethylene (PE)-50 tubing. A surgical clip was used to fashion a Rummel tourniquet to provide temporary occlusion of the left hilar structures. The thoracotomy was closed, anesthesia was weaned, and analgesia was administered (intraperitoneal buprenorphine. 0.2 mg/kg). Animals recovered in their cages during the 1-hour ischemic period, after which they were anesthetized again and intubated, the Rummel tourniquet was removed, and the thoracotomy was closed. Animals were again extubated, recovered in their cage, and monitored during the 2-hour reperfusion period. Sham animals underwent the same surgical procedure except that application of the Rummel tourniquet to induce ischemia was omitted; thus, these animals were perfused for a total of 3 hours.
Ca^2+ imaging in Pas: Ca^2+ imaging in small Pas was performed as previously described.8 Fourth-order, small (~50 μm diameter) Pas (see FIG. 1B) were dissected from left lungs in cold HEPES-buffered physiological salt solution (HEPES-PSS; 10 mM HEPES, 134 mM NaCl, 6 mM KCl, 1 mM MgCl2 hexahydrate, 2 mM CaCl2) dihydrate, and 7 mM dextrose; pH adjusted to 7.4 using 1 M NaOH). […] Fluo-4 was excited using a 488-nm solid-state laser, and emitted fluorescence was captured using a 525/36-nm band-pass filter. […] Baseline Ca^2+ signaling activity was recorded in the absence of CPA. […]

The subject of a further data set is TRPV4EC channels. In words: TRPV4 sparklet activity in endothelium of small PAs after lung IR (in presence of CPA). Type of data set: cell-based, mice. The settings on record: apyrase 10 U/mL; small PAs after lung IR. The protocol: as §1, with “Sham animals underwent the same surgical procedure except that application of the Rummel tourniquet to induce ischemia was omitted; thus, these animals were perfused for a total of 3 hours.” left out
Ca^2+ imaging in Pas: Ca^2+ imaging in small Pas was performed as previously described.8 Fourth-order, small (~50 μm diameter) Pas (see FIG. 1B) were dissected from left lungs in cold HEPES-buffered physiological salt solution (HEPES-PSS; 10 mM HEPES, 134 mM NaCl, 6 mM KCl, 1 mM MgCl2 hexahydrate, 2 mM CaCl2) dihydrate, and 7 mM dextrose; pH adjusted to 7.4 using 1 M NaOH). […] Fluo-4 was excited using a 488-nm solid-state laser, and emitted fluorescence was captured using a 525/36-nm band-pass filter. […] Baseline Ca^2+ signaling activity was recorded in the absence of CPA.
TRPV4 sparklets were assessed as increases in fluorescence relative to baseline fluorescence, obtained by averaging 10 quiescent images prior to stimulation. […]

On to `CC(=O)C1=C(O)[C@@H]2[C@H]3c4c[nH]c5cccc(c45)C[C@H]3C(C)(C)N2C1=O` [CPA, Cyclopiazonic acid], for which the “effect of CPA by itself on activity of TRPV4 channels” value with TRPV4 channels is on record as “does not alter”.

With `CC(C)C[C@H](NC(=O)c1cc2ccccc2s1)C(=O)N1CCN(C(=O)[C@H](CO)NS(=O)(=O)c2ccc(Cl)cc2Cl)CC1` [GSK101, GSK1016790A], in data set [1], the “eATP efflux through Panx1 channels (eATP release from small PAs)” value is listed as “increased”.

For the compound `CC(C)(O)c1cnc(N2C[C@@]3(CCC[C@](C)(Cn4cnc5ccc(C#N)cc54)C3)OC2=O)cn1` [GSK2798745], in data set [2], the tolerability result is reported as “well tolerated”.

On to apyrase, for which the “IR-induced increase in baseline Ca2+ signaling activity” value in data set [3] is listed as “abolished”. Also, the “IR-induced increase in TRPV4EC channel activity” value with TRPV4EC channels is “abolished”.
